Results on five molecules are retold here after patent US7767645B2, “SH2 domain binding inhibitors” (The United States of America as represented by the …, priority 2003, dated 2010).

Experiment [1] concerns the target T1, Grb2 SH2 domain protein (b-Grb2) (Homo sapiens, UniProt P62993).
T1 construct: All Biotinylated Grb2 SH2 domain protein (b-Grb2) was expressed and purified; biotin (biotinylated)
The experiment in a line: Surface Plasmon Resonance (SPR) determination of Grb2 SH2 domain-binding Kd values. The note with it: BIACORE S51, immobilized biotinylated Grb2 SH2 domain, 25° C., PBS pH 7.4. The protocol:
Binding affinities were determined as follows. Surface Plasmon Resonance (SPR) Determination of Grb2 SH2 Domain-Binding Kd Values. Binding experiments were performed on a BIACORE S51 instrument (Biacore Inc., Piscataway N.J.). All Biotinylated Grb2 SH2 domain protein (b-Grb2) was expressed and purified (Protein Expression Laboratory and The Protein Chemistry Laboratory, SAIC—Frederick). The b-Grb2 was immobilized onto carboxymethyl 5′ dextran surface (CM5 sensor chip, Biacore Inc.) by amine coupling. The lyophilized b-Grb2 was reconstituted in fifty percent DMSO in H2O to make a stock solution of 1 mg/mL and stored at −80° C. A 1:12.5 dilution of b-Grb2 was used for immobilization and prepared by dilution in acetate buffer pH-5.0, with 5% DMSO. 1×PBS (phosphate buffered saline, pH 7.4) was used as the running buffer.
An immobilization wizard was used to facilitate immobilization targeting. For b-Grb2, 2500-5000 resonance units (RU) of protein were captured on the CM5 sensor chip. Small molecule ligands were serially diluted in running buffer to concentrations of 1.25 nM-1500 nM, as described in each sensorgram and injected at 25° C. at a flow rate of 30 μl/min for 1 minute and dissociation was monitored for an additional 3 minutes. Surface regeneration was not used. Samples of differing concentrations of small molecule ligands were injected in increasing concentration, with every injection being performed in duplicate within each experiment. In order to subtract background noise from each data set, all samples were also run over an unmodified reference surface and injections of running buffer were performed throughout every experiment (“double referencing”). Up to six data sets were fit to a simple 1:1 interaction model or to a surface heterogeneity model (“complex model”) for compound 41, using the global data analysis program CLAMP. Myszka, D. G.; Morton, T. A.; CLAMP: A biosensor kinetic data analysis program. Trends Biochem. Sci. 1998, 23, 149-150. The mean of the ratio and associated error were calculated according to known procedures. van Kempen, G. M.; van Vliet, L. J.; Mean and variance of ratio estimators used in fluorescence ratio imaging. Cytometry 2000, 39, 300-305.
Background: In SPR one partner is held on a chip, and binding of the other changes the refractive index at the surface.

Experiment [2] addresses T2, Grb2 SH2 domain-MBP fusion protein (Homo sapiens, UniProt P62993).
T2 construct: is added biotinylated Grb2 SH2 domain-MBP fusion protein; biotin (biotinylated)
The experiment in a line: ELISA-based determination of Grb2 SH2 domain-binding IC50 values. The note with it: competition with HRP-SA-biotinylated-phosphopeptide complex. As for the experimental part: ELISA-Based Determination of Grb2 SH2 Domain-Binding IC50 Values. To multiwell plates pre-coated with streptavidin (SA) is added biotinylated Grb2 SH2 domain-MBP fusion protein. SH2 domain-fusion protein binds to the SA on the plate and unbound protein is then washed away and the plate is blocked using the commercial ELISA blocking agent, I-Block that contains detergent and casein (a milk protein). This blocking agent prevents subsequently-added constituents from sticking to the plastic well non-specifically. To the wells is then added horseradish peroxidase-(HRP)-SA-biotinylated-phosphopeptide as a pre-formed complex (termed “Complex”). [NOTE: The HRP-SA-biotinylated phosphopeptide complex is prepared ahead of time by combining a vast molar excess of SA-HRP with the biotinylated phosphopeptide to assure that all of the biotin sites are bound to SA-HRP before they are added to the well. This prevents those biotin sites from sticking to the SA coating on the plate, which would generate a signal even in the absence of biotinylated Grb2 SH2 domain-MBP fusion protein.] This complex binds to the Grb2 SH2 domain via the phosphopeptide. Unbound Complex is washed away before adding HRP substrate (OPD) to generate a color that is measured spectrophotometrically. Synthetic SH2 domain binding antagonists, at various concentrations, are added to wells in the presence of Complex to compete for HRP-SA-biotinylated-phosphopeptide binding to Grb2 SH2 domain protein. The intensity of the resulting color for each well as a function of the concentration of synthetic inhibitor added is recorded.
Background: An ELISA detects its analyte on a solid surface through an enzyme-linked reagent.

The structures appear in SMILES notation. pIC50, pKd: −log10 of the molar value.

T2 sequence (P62993 60-152 limits assumed): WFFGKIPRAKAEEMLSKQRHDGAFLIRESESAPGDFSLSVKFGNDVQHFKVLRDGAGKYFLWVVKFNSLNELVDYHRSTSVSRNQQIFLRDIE
T1 sequence (P62993 60-152 limits assumed): as above

What is called pKd is −log10 of the Kd, conventionally taken in molar units. High values mean a small Kd, low ones a large Kd. In experiment [1], `Cc1ccc2c(ccn2CC2CC=CC(c3ccc(CP(=O)(O)O)cc3)C(CC(=O)O)C(=O)NC3(CCCCC3)C(=O)NC(CC(N)=O)C(=O)NC2)c1` (centres unmarked) [Compound 6] showed a pKd of 8.78.

As a reminder, the pIC50 is the negative decadic logarithm of the IC50, by convention in mol/L. Low readings indicate a large IC50, high ones a small IC50. Take `Cc1ccc2c(ccn2CC2CC=CC(c3ccc(NC(=O)C(=O)O)cc3)C(CC(=O)O)C(=O)NC3(CCCCC3)C(=O)NC(CC(N)=O)C(=O)NC2)c1` (centres unmarked) [Compound 28]: the pKd in experiment [1] was 7.17. This molecule showed a pIC50 in experiment [2] of 8.06.

In experiment [1], `Cc1ccc2c(ccn2CC2CC=CC(c3ccc(C(C(=O)O)C(=O)O)cc3)C(CC(=O)O)C(=O)NC3(CCCCC3)C(=O)NC(CC(N)=O)C(=O)NC2)c1` (centres unmarked) [Compound 32] showed a negative-log Kd (pKd) of 8.44. The molecule further gave a negative logarithm of the IC50 (pIC50) in experiment [2] of 8.48.

In the case of `Cc1ccc2c(ccn2CC2CC=CC(c3ccc(CC(=O)O)cc3)C(CC(=O)O)C(=O)NC3(CCCCC3)C(=O)NC(CC(N)=O)C(=O)NC2)c1` (centres unmarked) [Compound 33], the pIC50 in experiment [2] is 7.65.

In the case of `Cc1ccc2c(ccn2CC2CC=CC(c3ccc(CP(=O)(O)Cc4ccccc4)cc3)C(CC(=O)O)C(=O)NC3(CCCCC3)C(=O)NC(CC(N)=O)C(=O)NC2)c1` (centres unmarked) [Compound 41], the negative-log Kd (pKd) in experiment [1] is 7.45. Besides, the pIC50 in experiment [2] was 8.08.
